In PubChem BioAssay AID1552 (Sanford-Burnham Center for Chemical Genomics, 2009):
Activity calls are given as the source filed them. The rule behind the calls is not given here.

Biological target: Ubiquitin-conjugating enzyme E2 N (Homo sapiens) (UniProt P61088)
Assay: NMR detection of UBE2N ligand binding – biophysical, purified protein (AID 1552)
Settings: NMR binding to purified UBE2N

Sequence of Ubiquitin-conjugating enzyme E2 N (Homo sapiens) (P61088 whole entry, looked up): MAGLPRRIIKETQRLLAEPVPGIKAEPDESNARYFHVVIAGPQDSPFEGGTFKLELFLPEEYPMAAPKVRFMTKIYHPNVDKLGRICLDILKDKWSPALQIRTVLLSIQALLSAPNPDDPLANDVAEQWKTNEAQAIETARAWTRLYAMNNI

Row | Structure (SMILES) | Kd
1 | C[C@@H]1C(=O)OC2[C@H](O)C34[C@@H]5OC(=O)[C@@]3(O[C@@H]3OC(=O)[C@H](O)[C@@]34[C@H](C(C)(C)C)[C@H]5O)[C@]21O (stereo not given in full) | > 4 mM (inactive)
2 | NCc1ccc2sccc2c1 | > 4 mM (inactive)
3 | Cc1ccc(/C=C/C(=O)O)cc1S(=O)(=O)NCCO | > 4 mM (inactive)
4 | Cn1cnc2c(=O)[nH]cc([N+](=O)[O-])c21 | > 4 mM (inactive)
5 | O=c1n(-c2ccccc2)c(=O)n2n1CCCC2 | > 4 mM (inactive)
6 | Cc1ccc(CN2CCN(C(=O)C3CCC3)CC2)cc1 | > 4 mM (inactive)
7 | Nc1ccc(-n2cccc2)cc1 | > 4 mM (inactive)
8 | Cc1cc(C)n(-c2cccc3cccnc23)n1 | > 4 mM (inactive)
9 | COC(=O)c1c[nH]c2ccccc12 | > 4 mM (inactive)
10 | CC(=O)N1CCc2ccccc2C1CC(=O)O (stereo not given) | > 4 mM (inactive)
11 | CCN1CCn2c1nc(N1CCOCC1)nc2=O | > 4 mM (inactive)
12 | COC(=O)c1cccc(C(F)(F)F)c1 | > 4 mM (inactive)
13 | Cn1cc(Cl)c(C(=O)NC2CCCCCC2)n1 | > 4 mM (inactive)
14 | NNC(=O)c1ccccc1-n1cccc1 | > 4 mM (inactive)
15 | COC(=O)[C@@H]1OC(=O)C2OC23[C@@]1(C)CCC1[C@]2(C)C(C[C@@H](O)[C@]13C)C(C)(C)[C@H](OC(C)=O)C[C@@H]2OC(C)=O (stereo not given in full) | > 4 mM (inactive)
16 | O=S1(=O)CCC(NC(=S)Nc2ccccn2)C1 (stereo not given) | > 4 mM (inactive)
17 | COc1cc(-c2csc(C)n2)ccc1O | > 4 mM (inactive)
18 | CC1(C)C=CC(=O)[C@@]2(C)C1CC(=O)[C@]1(C)C2CC[C@@]2(C)[C@H](c3ccoc3)OC(=O)C3OC321 (stereo not given in full) | > 4 mM (inactive)
19 | Cc1nn(C)c(C)c1C(=O)O | > 4 mM (inactive)
20 | Cc1cc(NC(=O)c2cc(C)on2)no1 | > 4 mM (inactive)
21 | CN1CCN(CC(=O)N2CCc3ccccc32)CC1 | > 4 mM (inactive)
22 | COC(=O)Cn1c2ccccc2c2nc(C)sc21 | > 4 mM (inactive)
23 | O=C(Nc1cccnc1)c1cccs1 | > 4 mM (inactive)

Row | Structure (SMILES) | Kd
24 | OCc1ccc(CN2CCOCC2)cc1 | > 4 mM (inactive)
25 | NC(=O)c1cc2c(n(-c3ccccc3)c1=O)CCCC2=O | > 4 mM (inactive)
26 | Cc1cc(=O)[nH]c(NCC(=O)O)n1 | > 4 mM (inactive)
27 | Cn1c2c(c(=O)n(C)c1=O)CN(Cc1ccco1)CN2 | > 4 mM (inactive)
28 | COc1nc(C)ccc1-c1noc(-c2ccco2)n1 | > 4 mM (inactive)
29 | CC1=CC2C(C(C)C)CCC(C)(O)C2CC1 (stereo not given) | > 4 mM (inactive)
30 | CCCCCCCCCCCCCCC(C(=O)OC)C(O)(CC(=O)OC)C(=O)OC (stereo not given) | > 4 mM (inactive)
31 | CN(C)S(=O)(=O)c1ccc(NC=O)cc1 | > 4 mM (inactive)
32 | CC(=O)NS(=O)(=O)c1ccc(C)cc1 | > 4 mM (inactive)
33 | NCCCCN=C(N)N | > 4 mM (inactive)
34 | CC(=O)c1c(C)nc(-c2ccc(F)cc2)n1O | > 4 mM (inactive)
35 | O[C@H]1C=C2CCN3Cc4cc5c(cc4C(C23)[C@@H]1O)OCO5 (stereo not given in full) | > 4 mM (inactive)
36 | CS(=O)(=O)N1CCN(C(=O)c2ccccc2)CC1 | > 4 mM (inactive)
37 | Nc1ccccc1-c1nc2ccccc2[nH]1 | > 4 mM (inactive)
38 | O=C1Nc2ccccc2C12OCCO2 | > 4 mM (inactive)
39 | NC(=O)c1cn(-c2ccccc2)nc1-c1cccnc1 | > 4 mM (inactive)
40 | NC(=O)CSc1ccccn1 | > 4 mM (inactive)
41 | CN1CCN(c2ccc(C(=O)O)cc2)CC1 | > 4 mM (inactive)
42 | NC(C(=O)O)C(O)c1ccccc1 (stereo not given) | > 4 mM (inactive)
43 | COC(=O)c1ccc2nc[nH]c2c1 | > 4 mM (inactive)
44 | COc1ccccc1NC(C)=O | > 4 mM (inactive)
45 | NC(=O)c1ccc(C(N)=O)c(-c2ccccc2)c1 | > 4 mM (inactive)
46 | O=C1C2C3C=CC(C3)C2C(=O)N1c1nccs1 (stereo not given) | > 4 mM (inactive)

Row | Structure (SMILES) | Kd
47 | NC(N)=NCCCCN=C(N)N | > 4 mM (inactive)
48 | CC(CCC(=O)O)[C@H]1CCC2C3C[C@H](O)[C@@H]4C[C@H](O)CC[C@]4(C)C3CC[C@@]21C (stereo not given in full) | > 4 mM (inactive)
49 | COn1c(=O)c(C)[n+]([O-])c2ccccc21 | > 4 mM (inactive)
50 | C=CCc1ccc2c(c1)OCO2 | > 4 mM (inactive)
51 | C=CCN1CC[C@]23c4c5ccc(O)c4OC2C(=O)CC[C@@]3(O)[C@H]1C5 (stereo not given in full) | > 4 mM (inactive)
52 | CC(C)=CC(=O)Nc1ccc2c(c1)OCO2 | > 4 mM (inactive)
53 | CN=C(C)c1c(O)n(C)c(=S)n(C)c1=O | > 4 mM (inactive)
54 | COc1ccc(-c2coc3c(OC)c(OC)cc(OC)c3c2=O)cc1 | > 4 mM (inactive)
55 | O=[n+]1c2c(n([O-])c3ccccc31)CCCC2 | > 4 mM (inactive)
56 | CCc1cc2c(SCC(=O)O)ncnc2s1 | > 4 mM (inactive)
57 | CC(C)NC(=S)NCc1cnn(C)c1 | > 4 mM (inactive)
58 | CN(c1ccc(C(=O)N2CCCCC2)cc1)S(C)(=O)=O | > 4 mM (inactive)
59 | Cn1c(O)c(/C=C2\C=CC=N2)c(=O)[nH]c1=O | > 4 mM (inactive)
60 | O=C(NCc1ccccc1Br)c1ccco1 | > 4 mM (inactive)
61 | Cc1cc2c(=O)n(C)c(SCC(N)=O)nc2s1 | > 4 mM (inactive)
62 | CCSc1nc(=S)n(CC)c(C)c1C(C)=O | > 4 mM (inactive)
63 | COc1cccc(NC(=O)c2ocnc2C)c1 | > 4 mM (inactive)
64 | CC1(C)CC(NC(=O)/C=C/C(=O)O)CC(C)(C)N1 | > 4 mM (inactive)
65 | NCc1ccc(CN2CCOCC2)cc1 | > 4 mM (inactive)
66 | CN(C)c1nc(N2CCOCC2)nc(N2CCOCC2)n1 | > 4 mM (inactive)
67 | COCC(=O)Nc1nc2ccc(C)cc2s1 | > 4 mM (inactive)
68 | CN(C)CCCN1CNC(=S)NC1 | > 4 mM (inactive)
69 | CN(C)S(=O)(=O)Nc1ccc(Br)cc1F | > 4 mM (inactive)

Row | Structure (SMILES) | Kd
70 | CCCSc1nnc2[nH]c(=O)cc(N)n12 | > 4 mM (inactive)
71 | O=C(O)c1ccc(Oc2ccccc2)nc1 | > 4 mM (inactive)
72 | NC(=S)NC(=O)CN1C(=O)c2ccccc2C1=O | > 4 mM (inactive)
73 | C/C=C(\C)C(=O)O[C@H]1C[C@@H](OC(C)=O)[C@@]2(C(=O)OC)CO[C@@H]3C2[C@]12CO[C@](O)(C(=O)OC)[C@H]2[C@](C)(C12O[C@@]1(C)[C@H]1C[C@@H]2OC2OC=C[C@@]21O)[C@@H]3O (stereo not given in full) | > 4 mM (inactive)
74 | Nc1ccc2[nH]ncc2c1 | > 4 mM (inactive)
75 | O=C1NC(=O)C(C(=S)Nc2ccccc2)C(=O)N1 | > 4 mM (inactive)
76 | CC1CCC2(OC1)OC1CC3C4CCC5C[C@@H](O)CCC5(C)C4=CCC3(C)C1[C@@H]2C (stereo not given in full) | > 4 mM (inactive)
77 | O=C(NCCO)c1cc2ccccc2c(=O)s1 | > 4 mM (inactive)
78 | CC(=O)NC1=NN(c2ccccc2)C(=O)C1 | > 4 mM (inactive)
79 | CC1(C)C(=O)C=C[C@@]2(C)C1C=C[C@]1(C)C2CC[C@@]2(C)[C@H](c3ccoc3)OC(=O)C3OC321 (stereo not given in full) | > 4 mM (inactive)
80 | CCCCCC/C=C\CCCCCCCc1cccc(O)c1C(=O)O | > 4 mM (inactive)
81 | O=C(O)c1cccc2c1OCCCO2 | > 4 mM (inactive)
82 | Cc1cc(=O)cc(C)n1NC(N)=S | > 4 mM (inactive)
83 | Cc1nn(C)c(Cl)c1C(O)c1c(C)nn(C)c1Cl | > 4 mM (inactive)
84 | O=C(O)c1cccc(O)c1O | > 4 mM (inactive)
85 | Cc1occc1C(=O)NCc1ccccn1 | > 4 mM (inactive)
86 | COc1ccc(-c2ccc(OC)cc2C(=O)O)cc1 | > 4 mM (inactive)
87 | Cc1nccn1CCC(=O)O | > 4 mM (inactive)
88 | CC(C)NC(=O)c1cc(-n2cnnc2)ccc1Cl | > 4 mM (inactive)
89 | CC(=O)Oc1ccc(-c2nc(-c3cccnc3)no2)cc1 | > 4 mM (inactive)
90 | COc1ccc2c(c1)O[C@H]1c3ccc(OC)cc3OC[C@@H]21 | > 4 mM (inactive)
91 | Cc1ccc(SCCN2C(=O)NC(C)(C)C2=O)cc1 | > 4 mM (inactive)
92 | C[C@@H]1CC[C@@]2(OC1)OC1CC3C4CC=C5C[C@@H](O)CC[C@]5(C)C4CC[C@]3(C)C1[C@@H]2C (stereo not given in full) | > 4 mM (inactive)

Row | Structure (SMILES) | Kd
93 | CC(=O)O[C@H]1C[C@@H](OC(C)=O)C(C)(C)C2C[C@@H](OC(C)=O)[C@]3(C)C([C@H](OC(C)=O)C[C@@]4(C)[C@H](c5ccoc5)OC(=O)[C@H]5O[C@]543)[C@]21C (stereo not given in full) | > 4 mM (inactive)
94 | OC1CNCc2cc3c(cc21)OCCO3 (stereo not given) | > 4 mM (inactive)
95 | CC(=O)c1cccc(NC2=NCC(C)(C)S2)c1 | > 4 mM (inactive)
96 | Nc1cccc(C(=O)c2ccccc2)c1 | > 4 mM (inactive)
97 | Cc1nnsc1C(=O)Nc1cccc(S(N)(=O)=O)c1 | > 4 mM (inactive)
98 | CN(c1ccccc1C(=O)N1CCOCC1)S(C)(=O)=O | > 4 mM (inactive)
99 | Cc1nccc(-c2cccc(N)c2)n1 | > 4 mM (inactive)
100 | O=C(O)c1cc2ccccc2[nH]1 | > 4 mM (inactive)
101 | O=C(O)c1cnc2n(c1=O)CCS2 | > 4 mM (inactive)
102 | O=C(O)c1ccc2occc2c1 | > 4 mM (inactive)
103 | OCc1ccc(-n2cncn2)cc1 | > 4 mM (inactive)
104 | CC1(C)CC23C(=O)CCC(O)C2(C)CCC13 (stereo not given) | > 4 mM (inactive)
105 | CCNC(=O)CC1Nc2ccccc2NC1=O (stereo not given) | > 4 mM (inactive)
106 | CCC(C)C(=O)O[C@@H]1C[C@@]2(C)[C@H](c3ccoc3)OC(=O)CC23OC2(C)O[C@]14[C@]1(C)[C@@H](CC(=O)OC)C5(C)CC1(O)[C@](O)(C5OC(=O)C1(C)OC1C)[C@@H](OC(C)=O)[C@]34O2 (stereo not given in full) | > 4 mM (inactive)
107 | CC(C)[C@@H]1CC[C@@H](C)C[C@H]1O | > 4 mM (inactive)
108 | C/C(O)=c1/sc2cc(C)nc(=N)n2c1=O | > 4 mM (inactive)
109 | Cc1sc2nc(SC3CCOC3=O)[nH]c(=O)c2c1C (stereo not given) | > 4 mM (inactive)
110 | CC(NC(=O)C1CCCCC1)C(=O)NC1=NCCS1 (stereo not given) | > 4 mM (inactive)
111 | CN1CCC[C@H]1c1cccnc1 | > 4 mM (inactive)
112 | O=C(Nc1nnc(-c2ccco2)o1)C1=COCCO1 | > 4 mM (inactive)
113 | CCOc1ccc(C(=O)c2ccc(OC)c(O)c2O)cc1 | > 4 mM (inactive)
114 | Cc1ccc(NC(=O)C2CCN(S(C)(=O)=O)CC2)cc1 | > 4 mM (inactive)
115 | Oc1ccccc1N1CCCC1 | > 4 mM (inactive)
